Where “and” joins values, the source holds several entries; their conditions need not be identical. Equal entries are not always repeated. Where two headings read alike, the source gives them in different places.
Tested on: DosRST regulon
Type: cell-based
Details: for Counts per million (CPM) WT_HC103A: replicates 1, 2

## O=C(Nc1cccc(O)c1)c1cccc(NC(=O)c2cccs2)c1 [HC103A, N-[3-[(3 hydroxyphenyl)carbamoyl]phenyl]thiophene-2-carboxamide]
Gene MT2019 (Rv1967)
  WT DMSO/WT HC103A fold change: 0.1846
  log2 Fold change: −2.437
Gene MT2019 Rv1967
  Counts per million (CPM) WT_HC103A: 58.15 CPM and 26.3 CPM
Gene MT2020 Rv1968
  WT DMSO/WT HC103A fold change: 0.199
  log2 Fold change: −2.329
  Counts per million (CPM) WT_HC103A: 72.37 CPM and 31.88 CPM
Gene MT2021 (Rv1969)
  WT DMSO/WT HC103A fold change: 0.2997
  log2 Fold change: −1.738
Gene MT2021 Rv1969
  Counts per million (CPM) WT_HC103A: 29.34 CPM and 13.9 CPM
Gene MT2022 (Rv1970 lprM)
  WT DMSO/WT HC103A fold change: 0.2084
  log2 Fold change: −2.263
Gene MT2022 Rv1970 lprM
  Counts per million (CPM) WT_HC103A: 41.74 CPM and 24.09 CPM
Gene MT2023 (Rv1971)
  WT DMSO/WT HC103A fold change: 0.2079
  log2 Fold change: −2.266
Gene MT2023 Rv1971
  Counts per million (CPM) WT_HC103A: 53.39 CPM and 33.31 CPM
Gene MT2024 (Rv1972)
  WT DMSO/WT HC103A fold change: 0.3791
  log2 Fold change: −1.399
Gene MT2024 Rv1972
  Counts per million (CPM) WT_HC103A: 12.78 CPM and 9.286 CPM
Gene MT2048 Rv1992c ctpG
  WT DMSO/WT HC103A fold change: 0.2903
  log2 Fold change: −1.784
  Counts per million (CPM) WT_HC103A: 531.4 CPM and 326.8 CPM
Gene MT2052 (Rv1996)
  WT DMSO/WT HC103A fold change: 0.003741
  log2 Fold change: −8.063
Gene MT2052 Rv1996
  Counts per million (CPM) WT_HC103A: 107.1 CPM and 83.44 CPM
Gene MT2053 (Rv1997 ctpF)
  WT DMSO/WT HC103A fold change: 0.0183
  log2 Fold change: −5.772
Gene MT2053 Rv1997 ctpF
  Counts per million (CPM) WT_HC103A: 57.85 CPM and 33.12 CPM
Gene MT2059 (Rv2003c)
  WT DMSO/WT HC103A fold change: 0.1063
  log2 Fold change: −3.234
Gene MT2059 Rv2003c
  Counts per million (CPM) WT_HC103A: 93.54 CPM and 62.92 CPM
Gene MT2060 Rv2004c
  WT DMSO/WT HC103A fold change: 0.05469
  log2 Fold change: −3.95
  Counts per million (CPM) WT_HC103A: 219.7 CPM and 144.4 CPM
Gene MT2061 Rv2005c
  WT DMSO/WT HC103A fold change: 0.04809
  log2 Fold change: −4.378
  Counts per million (CPM) WT_HC103A: 138.4 CPM and 91.76 CPM
Gene MT2062 Rv2006 otsB
  WT DMSO/WT HC103A fold change: 0.1408
  log2 Fold change: −2.828
  Counts per million (CPM) WT_HC103A: 107.5 CPM and 97.41 CPM
Gene MT2063 Rv2007c fdxA
  WT DMSO/WT HC103A fold change: 0.08678
  log2 Fold change: −4.765
  Counts per million (CPM) WT_HC103A: 527.8 CPM and 132.3 CPM
Gene MT2086 (Rv2027c)
  WT DMSO/WT HC103A fold change: 0.2521
  log2 Fold change: −1.988
Gene MT2086 Rv2027c
  Counts per million (CPM) WT_HC103A: 73.2 CPM and 62.79 CPM
Gene MT2087 Rv2028c
  WT DMSO/WT HC103A fold change: 0.02878
  log2 Fold change: −5.119
  Counts per million (CPM) WT_HC103A: 35.92 CPM and 8.702 CPM
Gene MT2088
  WT DMSO/WT HC103A fold change: 0.01366
  log2 Fold change: −6.194
  Counts per million (CPM) WT_HC103A: 84.09 CPM and 21.3 CPM
Gene MT2089 Rv2030c
  WT DMSO/WT HC103A fold change: 0.01775
  log2 Fold change: −5.816
  Counts per million (CPM) WT_HC103A: 451.1 CPM and 80.39 CPM
Gene MT2090
  WT DMSO/WT HC103A fold change: 0.0164
  log2 Fold change: −5.93
Gene MT2091 Rv2032
  WT DMSO/WT HC103A fold change: 0.01154
  log2 Fold change: −6.438
Gene MT2445.1
  WT DMSO/WT HC103A fold change: 0.4105
  log2 Fold change: −1.285
Gene MT2556 Rv2483c
  WT DMSO/WT HC103A fold change: 0.3592
  log2 Fold change: −1.477
Gene MT2557 Rv2484c
  WT DMSO/WT HC103A fold change: 0.3196
  log2 Fold change: −1.646
Gene MT2574 Rv2499c
  WT DMSO/WT HC103A fold change: 0.3086
  log2 Fold change: −1.696
Gene MT2576
  WT DMSO/WT HC103A fold change: 0.2991
  log2 Fold change: −1.741
Gene MT2577 Rv2502c accD1
  WT DMSO/WT HC103A fold change: 0.3334
  log2 Fold change: −1.585
Gene MT2578 Rv2503c scoB
  WT DMSO/WT HC103A fold change: 0.2841
  log2 Fold change: −1.815
Gene MT2579 Rv2504c scoA
  WT DMSO/WT HC103A fold change: 0.281
  log2 Fold change: −1.831
Gene MT2698 Rv2623
  WT DMSO/WT HC103A fold change: 0.006998
  log2 Fold change: −7.159
Gene MT2699 Rv2624c
  WT DMSO/WT HC103A fold change: 0.01316
  log2 Fold change: −6.247
Gene MT2700 Rv2625c
  WT DMSO/WT HC103A fold change: 0.007921
  log2 Fold change: −6.98
Gene MT2701 Rv2626c
  WT DMSO/WT HC103A fold change: 0.00844
  log2 Fold change: −6.888
Gene MT2702 Rv2627c
  WT DMSO/WT HC103A fold change: 0.005338
  log2 Fold change: −7.55
Gene MT2703 Rv2678
  WT DMSO/WT HC103A fold change: 0.02894
  log2 Fold change: −5.111
Gene MT2704 Rv2629
  WT DMSO/WT HC103A fold change: 0.05675
  log2 Fold change: −4.139
Gene MT2705 Rv2630
  WT DMSO/WT HC103A fold change: 0.07365
  log2 Fold change: 3.763
Gene MT2707 Rv2631
  WT DMSO/WT HC103A fold change: 0.07456
  log2 Fold change: −3.745
Gene MT3171 Rv3086 adhD
  WT DMSO/WT HC103A fold change: 0.4045
  log2 Fold change: −1.306
Gene MT3210
  WT DMSO/WT HC103A fold change: 0.0164
  log2 Fold change: −5.93
Gene MT3212 Rv3127
  WT DMSO/WT HC103A fold change: 0.01248
  log2 Fold change: −6.324
Gene MT3216 Rv3130c
  WT DMSO/WT HC103A fold change: 0.005779
  log2 Fold change: −7.435
Gene MT3217 Rv3131
  WT DMSO/WT HC103A fold change: 0.004749
  log2 Fold change: −7.718
Gene MT3218 Rv3132c
  WT DMSO/WT HC103A fold change: 0.04611
  log2 Fold change: −4.439
Gene MT3219 Rv3133c
  WT DMSO/WT HC103A fold change: 0.0294
  log2 Fold change: −5.088
Gene MT3220 Rv3134c
  WT DMSO/WT HC103A fold change: 0.02054
  log2 Fold change: −5.606
Gene MT3427
  WT DMSO/WT HC103A fold change: 0.4435
  log2 Fold change: −1.173
Gene MT3443 Rv3340 metC
  WT DMSO/WT HC103A fold change: 0.3114
  log2 Fold change: −1.683
Gene MT3444 Rv3341 metA
  WT DMSO/WT HC103A fold change: 0.2535
  log2 Fold change: −1.924
Gene MT3608 Rv3504 fadE26
  WT DMSO/WT HC103A fold change: 0.3558
  log2 Fold change: −1.491
Gene MT3634 Rv3531c
  WT DMSO/WT HC103A fold change: 0.2978
  log2 Fold change: −1.748
Gene MT3656 Rv3552
  WT DMSO/WT HC103A fold change: 0.3116
  log2 Fold change: −1.582
Gene MT3716 Rv3614c
  WT DMSO/WT HC103A fold change: 0.3057
  log2 Fold change: −1.71
Gene MT3717 Rv3615c
  WT DMSO/WT HC103A fold change: 0.3122
  log2 Fold change: −1.679
Gene MT3718 Rv3616c
  WT DMSO/WT HC103A fold change: 0.3166
  log2 Fold change: −1.659
